Reference: patent publication US9557338B2 (SIGNAL PHARMACEUTICALS, LLC, priority 2012, dated 2017)
Read-outs that look alike come from different tables or passages of the source.

Columns and labels:
Assay type in all cases: cell-based
p70S6K = test: Luminex multiplex assay, p70S6K phosphorylation in cell lysates
Description: (§1) The multiplex Luminex assay format differs from conventional enzyme-linked immunosorbent assay (ELISA) in that the multiplex capture antibody is attached to a polystyrene bead whereas the ELISA capture antibody is attached to the microplate well. The use of the suspension bead-based technology enables the multiplexing capabilities of the Luminex assays. The xMAP® technology uses 5.6 micron polystyrene microspheres, which are internally dyed with red and infrared fluorophores of differing intensities. Each bead is given a unique number, or bead region, allowing differentiation of one bead from another. Beads covalently bound to different specific antibodies can be mixed in the same assay, utilizing a 96-well microplate format. At the completion of the sandwich immunoassay, beads can be read, using the Luminex 100™ or Luminex 200 detection system, in single-file by dual lasers for classification and quantification of each analyte. The Akt-Pathway Phospho 5-plex kit used was custom made and includes the ability to simultaneously measure p-GSK3β (S9), p-PRAS40(T246), and p-4E-BP1(T46).
(§2) Cells were plated at the required density. The cells were treated with either Compound 1 or rapamycin over a range of concentrations for 1 hour in 5% CO2 at 37° C. Compound 1 and rapamycin were used at the same concentrations as for the proliferation assay. As for the cell proliferation assay, a reference standard was included in the assay for PC3 cells and the coefficient of variation for assay of p-GSK3β(S9) was 37.8% (n=30), p-PRAS40(T246) was 27.8% (n=30) and for p4E-BP1(T46) was 13.5% (n=4). For three cell lines (HCT-116, MDA-MB-231 and HT29) in the assay for phosphorylation of GSK3β, PRAS40 and 4E-BP1, IGF-I stimulation (500 ng/mL, recombinant human IGF-I) for the last 10 min of incubation was used. The media was aspirated from the wells and the plate was placed on ice. Then 35 μL of Lysis Buffer was added to each well and incubated on ice for at least 30 minutes. During the incubation, the standard curve for each phosphoprotein was prepared. The standards provided were reconstituted and serial dilutions were prepared according to the manufacturer's instructions. At the end of the cell lysis step, […] of the lysate was transferred to a V-bottom plate and spun at 4° C. at 2000 rpm for 5 minutes. Both the 1× Luminex bead and 1× detector antibody solutions were prepared during this time. The 1× bead solution was vortexed and 25 μL was added into each well of a black round bottom plate. Then 50 μL of the 1× detector antibody was added to each well. Fifty microliters (50 μL) of the prepared standards were added to the designated wells. Then 25 μL of the assay diluent was added to each well designated for the compound-treated cell lysates. At the end of the spin, 25 μL of cell lysate was added to the corresponding wells of the black assay plate. The assay plate was covered with the white plate lid and incubated for 3 hours at room temperature on an orbital shaker.
(§3) Approximately 10-15 minutes prior to the end of the first incubation, the secondary antibody solution was prepared according to the vendor's protocol. Goat anti-rabbit R-phycoerythrin red fluorescent protein (RPE) supplied as a 10× concentrate was diluted to generate a 1× goat anti-rabbit RPE stock. The 96-well filter plate was pre-wet with 200 μL of 1× Working wash solution. At the end of the 3 hour incubation, a multichannel pipette was used to transfer the entire contents from each assay well into the wells of the filter plate. The liquid from the wells was removed by aspiration with the vacuum manifold. Then 200 μL of 1× Working wash solution was added into each well. The wash solution was aspirated using the vacuum manifold after 15-30 seconds. This wash step was repeated one time. The bottom of the plate was blotted on clean paper towels to remove residual liquid. […]

Phospho-GSK3β(S9) = test: Luminex multiplex assay, Phospho-GSK3β(S9); settings: read-out: Luminex GSK-3β
Description: (§4) Determination of Phospho-GSK3β(S9), Phospho-PRAS40(T246) and Phospho-4E-BP1(T46) and the Effect of Compound 1 or Rapamycin.
as §1, §2, §3

Phospho-PRAS40(T246) = test: Luminex multiplex assay, Phospho-PRAS40(T246)
Description: as §4, §1, §2, §3

[1] = PC3 cell line, read-out: Luminex p70S6K
[2] = PC3 cell line, read-out: Luminex PRAS40
[3] = Homo sapiens, HCT-116, HCT116 cell line, IGF, read-out: Luminex p70S6K (IGF)
[4] = Homo sapiens, U-87 MG, U87MG cell line, read-out: Luminex p70S6K

SMILES | IC50 (p70S6K; [1]) | IC50 (Phospho-GSK3β(S9); PC3 cell line) | IC50 (Phospho-PRAS40(T246); [2]) | further results
O=C1CNc2ncc(-c3ccc4[nH]ccc4c3)nc2N1CCC1CCOCC1 [C-55] | 25 nM | 341 nM | 228 nM | –
COC1CCC(N2C(=O)CNc3ncc(-c4ccc(C(C)(C)O)nc4)nc32)C1 (stereo not shown) [C-78] | 1290 nM | > 1500 nM | > 1500 nM | –
CO[C@H]1CC[C@@H](CN2CC(=O)Nc3ncc(-c4ccc(-c5nnc[nH]5)nc4C)nc32)C1 [C-37] | 24 nM | – | – | –
COCCN1C(=O)CNc2ncc(-c3ccc4cn[nH]c4c3)nc21 [C-107] | 143 nM | > 1500 nM | > 1500 nM | –
O=C1CNc2ncc(-c3ccc4cn[nH]c4c3)nc2N1CCC1CCOCC1 [C-75] | 173 nM | > 1500 nM | > 1500 nM | –
COC1CCC(CN2C(=O)CNc3ncc(-c4ccc(C(C)(C)O)nc4)nc32)CC1 (stereo not shown) [C-42] | 16 nM | 268 nM | 44 nM | –
O=C1CN(CCC2CCOCC2)c2nc(-c3cnc4[nH]ccc4c3)cnc2N1 [C-44] | 17 nM | 313 nM | 98 nM | –
CNc1nc2c(C)cc(-c3cnc4c(n3)N(CCOC)C(=O)CN4)cc2[nH]1 [C-39] | 283 nM | > 5000 nM | 1400 nM | –
Cc1nc(-c2nnc[nH]2)ccc1-c1cnc2c(n1)N(C1CCC(O)CC1)C(=O)CN2 (stereo not shown) [C-71] | – | 40 nM | 37 nM | –
CO[C@@H]1CC[C@@H](N2C(=O)CNc3ncc(-c4ccc(-c5nnc[nH]5)nc4C)nc32)C1 [C-58] | 48 nM | 507 nM | 209 nM | –
CC(C)(O)c1ccc(-c2cnc3[nH]c(=O)n(CCC4CCOCC4)c3n2)cn1 [C-3] | 247 nM | 2590 nM | 1300 nM | –
CC(C)(O)c1ccc(-c2cnc3c(n2)N(CCC2CCOCC2)CC(=O)N3)cn1 [C-4] | 134 nM | 1110 nM | 678 nM | –
O=c1[nH]c2ncc(-c3ccc(C4(O)COC4)cn3)nc2n1CCC1CCOCC1 [C-77] | > 1500 nM | > 1500 nM | > 1500 nM | –
O=C1CN(CCC2CCOCC2)c2nc(-c3ccc4cc[nH]c4c3)cnc2N1 [C-41] | 746 nM | 3180 nM | 5000 nM | –
Cc1c(-c2cnc3c(n2)N(CCC2CCOCC2)CC(=O)N3)ccc(-c2nnc[nH]2)c1F [C-34] | 21 nM | > 5000 nM | 1520 nM | –
CC(C)(O)c1ccc(-c2cnc3[nH]c(=O)n(CC4CCCCC4)c3n2)cc1 [C-1] | 557 nM | > 1500 nM | > 1500 nM | –
COCCN1CC(=O)Nc2ncc(-c3cnc(-c4ncn[nH]4)cc3C)nc21 [C-88] | 3 nM | 8 nM | 23 nM | –
COCCN1CC(=O)Nc2ncc(-c3ccc(-c4nnc[nH]4)nc3C)nc21 [A-5, 4-(2-methoxyethyl)-6-(2-methyl-6-(4H-1,2,4-triazol-3-yl)pyridin-3-yl)-3,4-dihydropyrazino[2,3-b]pyrazin-2(1H)-one] | – | – | – | IC50 (p70S6K; [3]): 514 nM; IC50 (p70S6K; [4]): 104 nM; IC50 (Phospho-GSK3β(S9); Homo sapiens, U-87 MG, U87MG cell line): 2160 nM; IC50 (Phospho-PRAS40(T246); Homo sapiens, HCT-116, HCT116 cell line, IGF, read-out: Luminex PRAS40 (IGF)): 762 nM; IC50 (Phospho-PRAS40(T246); Homo sapiens, U-87 MG, U87MG cell line, read-out: Luminex PRAS40): 1090 nM
COC1CCC(N2C(=O)CNc3ncc(-c4ccc(-c5nnc[nH]5)nc4C)nc32)C1 (stereo not shown) [C-59] | 28 nM | 126 nM | 99 nM | –
Cc1cc(-c2nnc[nH]2)ccc1-c1cnc2c(n1)NC(=O)CN2 [C-35] | 815 nM | – | – | –
COCCN1C(=O)CNc2ncc(-c3ccc(-c4nc[nH]n4)c(F)c3C)nc21 [C-19] | 6 nM | 156 nM | 53 nM | –
O=C1CNc2ncc(-c3cn[nH]c3)nc2N1CCC1CCOCC1 [C-94] | 209 nM | > 1500 nM | > 1500 nM | –
CO[C@@H]1CC[C@H](CN2CC(=O)Nc3ncc(-c4ccc(-c5nnc[nH]5)nc4C)nc32)C1 [C-36] | 16 nM | – | – | –
Cc1nc(-c2nnc[nH]2)ccc1-c1cnc2c(n1)N(C1CCOCC1)C(=O)CN2 [C-60] | – | 58 nM | 55 nM | –
CCn1c(=O)[nH]c2ncc(-c3ccc(-c4nnc[nH]4)nc3C)nc21 [A-2, 1-ethyl-6-(2-methyl-6-(4H-1,2,4-triazol-3-yl)pyridin-3-yl)-1H-imidazo[4,5-b]pyrazin-2(3H)-one] | – | – | – | IC50 (p70S6K; [3]): 1240 nM; IC50 (p70S6K; [4]): 433 nM
COC1CCC(CN2C(=O)CNc3ncc(-c4ccc(-c5nc[nH]n5)nc4C)nc32)CC1 (stereo not shown) [C-46] | – | 218 nM | 144 nM | –

The next lines start with results.

IC50 (p70S6K; [1]) | IC50 (Phospho-GSK3β(S9); PC3 cell line) | IC50 (Phospho-PRAS40(T246); [2]) | SMILES | further results
> 1500 nM | > 1500 nM | > 1500 nM | N#Cc1cccc(-c2cnc3c(n2)N(CCC2CCOCC2)CC(=O)N3)c1 [C-83] | –
– | 671 nM | 261 nM | Cc1nc(-c2nnc[nH]2)ccc1-c1cnc2c(n1)N(CCN1CCOCC1)C(=O)CN2 [C-73] | –
– | 738 nM | 1090 nM | CCN1CC(=O)Nc2ncc(-c3ccc(-c4nnc[nH]4)nc3C)nc21 [C-45] | –
34 nM | 179 nM | 140 nM | CC(C)(O)c1ccc(-c2cnc3c(n2)N(CCC2CCOCC2)C(=O)CN3)cn1 [C-7] | –
> 1500 nM | > 1500 nM | > 1500 nM | O=C1CNc2ncc(-c3cncnc3)nc2N1CCC1CCOCC1 [C-106] | –
1 nM | 8 nM | 9 nM | Cc1nc(-c2nnc[nH]2)ccc1-c1cnc2c(n1)N(Cc1cccc(C#N)c1)C(=O)CN2 [C-92] | –
– | 1430 nM | 624 nM | COCCN1CC(=O)Nc2ncc(-c3ccc(-c4nnc[nH]4)nc3C)nc21 [C-10] | –
1 nM | 21 nM | 5 nM | Cc1cc(-c2nnc[nH]2)ncc1-c1cnc2c(n1)N(CC1CCOCC1)C(C)(C)C(=O)N2 [C-30] | –
33 nM | 568 nM | 349 nM | O=C1CNc2ncc(-c3ccc4[nH]ncc4c3)nc2N1CCC1CCOCC1 [C-62] | –
367 nM | > 1500 nM | > 1500 nM | COCCN1C(=O)CNc2ncc(-c3cccc4[nH]ncc34)nc21 [C-109] | –
102 nM | 860 nM | 1010 nM | COC1CCC(CN2C(=O)CNc3ncc(-c4cnc(C(N)=O)cc4C)nc32)CC1 (stereo not shown) [C-89] | –
15 nM | 608 nM | 564 nM | Nc1ccc(-c2cnc3c(n2)N(CCC2CCOCC2)C(=O)CN3)cn1 [C-100] | –
61 nM | 299 nM | 349 nM | CC(C)(O)c1ccc(-c2cnc3c(n2)N([C@H]2CC[C@@H](O)CC2)C(=O)CN3)cn1 [C-64] | –
80 nM | 502 nM | 415 nM | COC1CCC(N2C(=O)CNc3ncc(-c4ccc(C(C)(C)O)cc4)nc32)CC1 (stereo not shown) [C-48] | –
45 nM | 269 nM | 113 nM | CO[C@H]1CC[C@H](N2C(=O)CNc3ncc(-c4ccc(-c5nnc[nH]5)nc4C)nc32)C1 [C-56] | –
232 nM | 1140 nM | 1160 nM | COC1CCC(N2CC(=O)Nc3ncc(-c4ccc(-c5nnc[nH]5)nc4C)nc32)C1 (stereo not shown) [C-53] | –
– | 15 nM | 12 nM | CO[C@H]1CC[C@@H](CN2C(=O)CNc3ncc(-c4ccc(-c5nc[nH]n5)nc4C)nc32)CC1 [C-66] | –
1 nM | 81 nM | – | COCCN1C(=O)CNc2ncc(-c3cnc(-c4nc[nH]n4)cc3C)nc21 [C-33] | –
– | 310 nM | 105 nM | Cc1nc(-c2nnc[nH]2)ccc1-c1cnc2c(n1)N(C1CCC(O)CC1)C(=O)CN2 (stereo not shown) [C-72] | –
